The source made the active and inactive calls. The calls are words filed in the database; no cut-off is given here.
How the values were obtained:
[1] = test system: Salmonella typhimurium; experiment: Mutagenic response at 1000 nmol/plate or lower for strain TA 98 of Salmonella Typhimurium; Not significant; assay type: functional, organism-based; conditions: Salmonella enterica subsp. enterica serovar Typhimurium
[2] = test system: Salmonella typhimurium; experiment: Mutagenic response at 1000 nmol/plate or lower for strain TA 100 of Salmonella Typhimurium; Not significant; assay type: functional, organism-based; conditions: Salmonella enterica subsp. enterica serovar Typhimurium
[3] = test system: Mus musculus; experiment: Decrease in life span of mice treated with compound dose of 320 mg/kg; assay type: functional
[4] = test system: Plasmodium berghei; experiment: Percent inhibition of adenosine uptake by Plasmodium berghei; assay type: functional
[5] = test system: Plasmodium berghei; experiment: Percent inhibition of hypoxanthine uptake by Plasmodium berghei; assay type: functional
[6] = test system: Mus musculus; experiment: Decrease in life span of mice treated with compound dose of 160 mg/kg; assay type: functional

c1ccc2c(C3CO3)c3ccccc3nc2c1 (stereo not drawn) was tested, and the Mutagenicity [1] was “inactive” and the Mutagenicity [2] was “inactive”.
With CCCCN(CCCC)CC(O)c1ccc2ncc3ccccc3c2c1 (stereo not drawn) the “Decrease in life span” value [3] was 0.1 days.
Work on OC(CN1CCCCC1)c1c2ccccc2nc2ccccc12 (stereo not drawn) yielded an Inhibition [4] of 31% and an Inhibition [5] of 50%.
In the case of CCCCN(CCCC)CCC(O)c1c2ccccc2nc2ccccc12 (stereo not drawn), the “Decrease in life span” value [6] is reported as 0.4 days.
CCN(CC)CCCC(C)Nc1c2ccc(Cl)cc2nc2ccc(OC)cc12 (stereo not drawn) [QUINACRINE] gave an Inhibition [4] of 80% and an Inhibition [5] of 92%.
